Results from ChEMBL document CHEMBL1201862, “PubChem BioAssay data set” (2004).
The source made the active and inactive calls. Cut-off read from the data, not from the text of the source, for most assays here: actives have a measured EC50 and inactives only a lower limit.

Columns and labels:
[1] = system: Streptococcus sp. 'group A'; test: growth inhibition of control SK(-) GAS strain, dose response, counter-screen for streptokinase expression inhibitor project, luminescence, kanamycin, BacTiterGlo, confirmation (AID 1900); assay type: functional, organism-based
[2] = molecular target: T1, Streptokinase A (Streptococcus pyogenes serotype M1, UniProt P10520); test: S. pyogenes streptokinase expression inhibitors, potency, dose response, plasminogen activation absorbance, OD405 (AID 1914); assay type: functional, Streptococcus pyogenes M1 GAS;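 note: secreted streptokinase activity via plasminogen activation per viability signal from cell pellet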
T1 sequence (P10520 whole entry): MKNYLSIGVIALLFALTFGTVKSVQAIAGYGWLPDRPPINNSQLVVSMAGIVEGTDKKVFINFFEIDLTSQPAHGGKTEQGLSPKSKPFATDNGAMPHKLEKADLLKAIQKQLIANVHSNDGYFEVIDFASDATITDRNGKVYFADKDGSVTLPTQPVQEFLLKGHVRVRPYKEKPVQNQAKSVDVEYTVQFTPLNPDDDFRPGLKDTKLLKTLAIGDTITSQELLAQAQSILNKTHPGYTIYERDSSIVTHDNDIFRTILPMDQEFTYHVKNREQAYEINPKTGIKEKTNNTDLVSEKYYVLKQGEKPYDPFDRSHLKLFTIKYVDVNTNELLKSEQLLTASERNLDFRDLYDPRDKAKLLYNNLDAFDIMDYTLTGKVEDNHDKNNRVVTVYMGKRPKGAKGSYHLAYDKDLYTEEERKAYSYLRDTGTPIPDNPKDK

[3] = system: Streptococcus; test: Group A Streptococcus viability loss, dose response, counter-screen for streptokinase expression inhibitor project, luminescence, BacTiterGlo (AID 1915); assay type: functional, organism-based;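 note: potency for reduction of bacterial viability or growth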
[4] = cells; assay type: functional
[5] = system: H4; test: Luminescence Cell-Based Dose Response HTS to Identify Activators of 5'UTR Stem-Loop Driven Prion Protein mRNA Translation in H4 Neuroglioblastoma Cells. [Related pubchem assays: 1829 (Project Summary), 1814 (Primary HTS)]; assay type: functional; settings: Homo sapiens
[6] = Luminescence Cell-Based Dose Response HTS to Identify Activators of Luciferase Translation or Activity in H4 […] Cells. [Related pubchem assays: 1829 (Project Summary), 1814 (Primary HTS)]; assay type: functional
[7] = inhibitors of intracellular T. cruzi replication, confirmation, NIH3T3 host cells, beta-gal luminescence (AID 2044); assay type: functional, cell-based;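 note: intracellular parasites grown in NIH/3T3 mouse fibroblasts as host cells; luminescent beta-galactosidase reporter signal from transgenic T. cruzi replicating inside host cells; inhibitors lower the luminescence signal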
[8] = cytotoxicity toward NIH3T3 fibroblasts, dose response, counter-screen, cell-based, ATP luminescence, mouse fibroblasts (AID 2010); assay type: functional;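 note: cells exposed to compound for about 90 hours before reading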

SMILES | EC50 [1] | EC50 [2] | EC50 [3] | IC50 [4] | further results
OC(COc1cccc2ccccc12)CN1CCN(c2cccc(Cl)c2)CC1 (configuration not stated) | 15.5 µM (active) | 20.1 µM (active) | 31 µM (active) |  | 
O=S(=O)(Nc1nc2ccccc2nc1Cl)c1ccc2ccccc2c1 | 9.62 µM (active) | 15.1 µM (active) | > 150 µM (not active) |  | 
Fc1cccc2sc(N3CCCC3)nc12 |  |  |  | > 50 µM (active) | 
CC(C)(C)c1ccc(OCCC(=O)OCC(=O)NC2CC2)cc1 |  |  |  | 48.5 µM (active) | 
COc1ccc(/C=C/c2ccc3cccc(O)c3n2)cc1Br | 0.796 µM (active) | > 150 µM (not active) | 13.5 µM (active) |  | 
N#CCSc1nc2ccc(N3CCOCC3)cc2c(=O)n1CCc1ccccc1 | 7.19 µM (active) | > 150 µM (not active) | 13.1 µM (active) |  | 
COc1ccc(-c2cc(=O)oc(-c3cccc(C)c3)n2)cc1 |  |  |  | 35.9 µM (active) | 
CCOC(=O)C(=NCCOC)NNc1cc(Cl)ccc1Cl |  |  |  | > 50 µM (active) | 
Fc1ccc(CSc2nnc(-c3ccccn3)o2)cc1 |  |  |  |  | EC50 [5]: 0.175 µM (active); EC50 [6]: 0.103 µM (active)
CCCCNC(=O)Nc1nnc(-c2ccc(Cl)cc2)o1 |  |  |  | 13.2 µM (active) | 
O=c1c2ccccc2nc2oc3ccccc3n12 |  |  |  |  | EC50 [5]: 0.139 µM (active); EC50 [6]: 0.123 µM (active)
O=C(Nc1cccc(C(F)(F)F)c1)c1cc2c(=O)c3ccccc3oc2nc1C(F)(F)F | 18.7 µM (active) | 43.3 µM (inconclusive) | 65.1 µM (active) |  | 
CCOC(=O)C(C)(C)n1nnc(-c2ccc([N+](=O)[O-])cc2)n1 |  |  |  | 45.9 µM (active) | 
COC(=O)c1cc2c(ccc3ccccc32)oc1=O |  |  |  | 6.54 µM (active) | 
O/C(=C\C=N\c1ccccc1O)c1ccco1 |  |  |  | 4.76 µM (active) | 
O=C(NCc1ccc(C(F)(F)F)cc1)c1ccc2c(c1)S(=O)(=O)c1ccccc1C2=O | > 150 µM (not active) | > 150 µM (not active) | > 150 µM (not active) |  | 
C/C(=N\NC(=O)c1cc2ccccc2cc1O)c1cccs1 | 18.3 µM (active) | > 150 µM (not active) | 59.6 µM (active) |  | EC50 [7]: 44.7 µM (active); EC50 [8]: > 60 µM (not active)
CN(C)/C=N/c1ncc(C(=O)c2ccccc2)s1 |  |  |  |  | EC50 [5]: 119 µM (active); EC50 [6]: 0.251 µM (active)
O=C1/C(=C/c2cccnc2)S/C(=N/Cc2ccccc2)N1Cc1ccccc1 | 21.6 µM (active) | 14.7 µM (active) | > 150 µM (not active) |  | EC50 [7]: 1.66 µM (active); EC50 [8]: > 60 µM (not active)
